Laboratory results taken from patent US20090306214A1, “Use of Syk Tyrosine Kinase Inhibitors for the Treatment of Cell Proliferative Disorders” (priority 2006, published 2009).
Entries after “also recorded” stand apart in the source; their conditions may differ.

Assays:
PHA-activated PBMCs = test: Inhibition of PHA-activated PBMCs (lymphocyte proliferation, thymidine incorporation); format: cell-based, human; settings: varying concentrations
human PBMC monocytes = test: Effect on human PBMC monocytes; format: cell-based; settings: FIGS. 11 and 12
Source text: FIG. 12 illustrates the effect of AV 74S treatment on monocytes;
FIGS. 11 and 12 compare the effect of compounds of the invention—AV 61S and AV 74S—on human PBMC T and B cells (FIG. 11) versus human PBMC monocytes (FIG. 12). […] T cells contain ZAP-70, rather than Syk, but B lymphocytes do contain Syk. […] As such, the effect seen on the B and T cells is believed to be due to the activity on the B cells, not the T cells.

E6.1 Jurkat cells = test: E6.1 Jurkat (Syk-deficient) cell survival and viability; format: cell-based
Procedure: FIG. 18 illustrates, in comparison with cyclosporin-treated Jurkat cells, the viability of E6.1 Jurkat cells treated with differing concentrations of AV 61S or AV 74S after 24 hours; and
FIG. 19 illustrates, in comparison with cyclosporin-treated Jurkat cells, the viability of E6.1 Jurkat cells treated with differing concentrations of AV 61S or AV 74S after 48 hours.
(§1) The jurkat E6.1 line is a Syk-deficient line; in fact, AV 61S after 7 days has no effect on this cell line (i.e., neither apoptosis nor inhibition, see […]). […] The viability study has been performed after 24 and 48 hours of incubation, each time for 3 evaluations; within 1, 3 and 6 hours.

HL-60 cells [1] = test: Viability of HL-60 cells after 3 days, XTT method; format: cell-based, human
Source text: (§2) Secondly, the effect of compounds of the invention may be compared to the natural inhibitor of Syk, piceatannol.

Jurkat cells = test: Jurkat cell survival after a seven day period (Syk-containing); format: cell-based; settings: 50 μg/ml; seven days; FIG. 4
Procedure: FIG. 4 illustrates the effect of AV 61S and AV 74S on Jurkat cell survival after a seven day period;
as §1

HL-60 cells [2] = test: Apoptosis of HL-60 cells after 2 days; format: cell-based, human
Source text: as §2

[3] = Viability of HL-60 cells after 3 days, XTT method; format: cell-based, human; settings: human, HL-60 cells
Source text: as §2

Structure (SMILES)	inhibitory effect on PHA-activated PBMCs (PHA-activated PBMCs; DMSO carrier, FIG. 1)	inhibitory effect on PHA-activated PBMCs (PHA-activated PBMCs; PBS carrier, FIG. 2)	effect on monocytes as compared to T and B cells (human PBMC monocytes)	viability of E6.1 Jurkat cells (E6.1 Jurkat cells; 24 and 48 hours of incubation, FIGS. 18 and 19)	effect on Syk-deficient Jurkat E6.1 cell survival (E6.1 Jurkat cells; after 7 days, FIG. 3)	viability of HL-60 cells (HL-60 cells [1]; 50 μg/ml + Pic 10 μM)	viability of HL-60 cells (HL-60 cells [1]; 50 μg/ml + Pic 30 μM)	viability of HL-60 cells (HL-60 cells [1]; 50 μg/ml, no piceatannol)	viability of HL-60 cells (HL-60 cells [1]; 100 μg/ml + Pic 10 μM)	viability of HL-60 cells (HL-60 cells [1]; 100 μg/ml + Pic 30 μM)	viability of HL-60 cells (HL-60 cells [1]; 100 μg/ml, no piceatannol)	killing of Syk-containing Jurkat cells (Jurkat cells)	Apoptosis of HL-60 cells (HL-60 cells [2]; Pic. 10 μM alone)	Apoptosis of HL-60 cells (HL-60 cells [2]; Pic. 30 μM alone)	viability at 3 days, 10 μM ([3]; Pic 10 μM alone)	viability at 3 days, 30 μM ([3]; Pic 30 μM alone)
CC(CO)OCC(C)OCC(C)OCC(C)OCC(C)OCC(C)OCC(C)OC[C@H](Cc1ccccc1)NC(=O)CCc1ccc(O)cc1 (stereo partly shown) [AV 61S]	inhibitory effect	lesser inhibitory effect	more profound on monocytes	do not kill them	no effect; also recorded: lack of effect	97 % of control	83 % of control	81 % of control	59 % of control	23 % of control	36 % of control	~100%	–	–	–	–
Oc1cc(O)cc(/C=C/c2ccc(O)c(O)c2)c1 [piceatannol, reference compound]	–	–	–	–	–	–	–	–	–	–	–	–	20%	33%	89%	79%
